This is an account of results in patent publication US9943599B2, “Therapeutic applications of calcium electroporation to effectively induce tumor necrosis” (Herlev Hospital, priority 2011, dated 2018).

Holding throughout (format): in vivo, NMRI-Foxn1^nu mice
Data set [1] relates to H69 (human small cell lung cancer) tumors. The data set can be described thus: Hypothetical volume test of injected solution. The note with it: with electroporation. The protocol: H69, a human small cell lung cancer cell line stably transfected with EGFP regulated by the cytomegalo-virus (CMV) promoter, is used for the in vivo experiments. The cells are tested by rapid MAP27 panel (Taconic, Hudson N.Y.) before use without signs of infection. Cells are maintained in vitro as described in Example 1. 1.5×10^6 cells/100 μl PBS are injected subcutaneously in both flanks of NMRI-Foxn1^nu mice (Harlan, Indianapolis, Ind.) that are 9-11 weeks old. Tumor pieces are transplanted from donor mice to the right flank of nude mice. HYPNORM™-DORMICUM™ (fentanyl/fluanisone/midazolam; VetaPharma, Leeds, U K and Roche, Basel, Switzerland) is used for anesthesia complemented with RIMADYL® (Carprofen) (Pfizer ApS, Ballerup, Denmark) […] as lidocaine (Region Hovedstadens Apotek, Herlev, Denmark) in the incision. […] Tumor volume is calculated as ab^2n/6, where “a” is the largest diameter and “b” is the largest diameter perpendicular to “a”. […] Background fluorescence is measured on the opposite flank and then the background fluorescence level is subtracted from fluorescence intensity of tumors. Finally, all fluorescence intensity below 100 normalised counts (NC) is filtered away using ART, Saint-Laurent, Quebec OPTIX® Optiview version 2.02 software (ART, Saint-Laurent, Quebec).
The differences in tumor volume and fluorescence intensity between tumors injected with the different solution volumes in the 4 treatment groups are evaluated as repeated measurements, validated and analysed with an exponential decrease model with Bonferroni correction for multiple comparisons using SAS® software version 9.1 (SAS, Cary, N.C.). ‘Group’, ‘days’ and ‘mouse’ are considered as factors and baseline levels of tumor volume or fluorescence intensity are used as covariant.

Data set [2] has as its system HT29 (human colon cancer) tumors. Nature of the data set: Fraction of necrosis after calcium electroporation, HT29 tumors. On the procedure:
(§1) LPB, a murine sarcoma cell line, B16, a murine malignant melanoma cell line, MDA-MB231, human a breast cancer cell line, HT29, a human colon cancer cell line, and SW780, a human bladder cancer cell line were used for the in vivo experiment. The cells were tested by rapid MAP27 panel (Taconic, Hudson N.Y.) before use without signs of infection. 2×10^5 cells (B16), 8×10^5 cells (LPB), 2.5×10^6 cells (MDA-MB231), and 5×10^6 cells (HT29 and SW780) in 100 μl PBS were injected subcutaneously in the flank of NMRI-Foxn1^nu mice (Harlan, Indianapolis, Ind.) that were 9-11 weeks old. Mice were randomised at a tumor volume above 85 mm^3 and tumors were treated with injection of isotonic calcium-chloride solution (168 mM CaCI2) and electroporation (8 pulses of 1.0 kv/cm for 100 μs and a frequency of 1 Hz) using a 6 mm plate electrode and a square wave electroporator (CLINIPORATOR®, IGEA, Modena, Italy). Tumor volume was calculated as ab^2n/6, where a is the largest diameter and b is the largest diameter perpendicular to a. The injected volume was half of the tumor volume. […] The fraction of necrosis within the tumor was estimated from HE-sections by stereological point counting using a light microscope, evaluated by a pathologist, blinded with respect to treatment status.
(§2) The difference in fraction of necrosis at different time after treatment was assessed using student's t-test.

Data set [3] relates to SW780 (human bladder cancer) tumors. Nature of the data set: Fraction of necrosis after calcium electroporation, SW780 tumors. The protocol: as §1, §2
[4] abbreviates: 168 mM CaCl2, half tumor volume, electroporation, first days after treatment.

`[Ca+2].[Cl-].[Cl-]` [calcium chloride]: the tumors eliminated entry in data set [1] (volume ratio 0.2, 004, 0.6 or 0.8) is on record as “eliminates most of the tumors”. The “ulceration of treated tumors” value in data set [1] is “occurs in most”. Besides, the “fluorescence intensity of tumors” value in data set [1] (all 4 injection volumes) was “decrease drastically”. Further, the “fraction of necrosis in tumors, course” value in data set [2] (setting [4]) and in data set [3] (setting [4]) was “progressive necrosis” throughout. Also, the tumor re-growth entry in data set [2] (6 days after the treatment) and in data set [3] (6 days after the treatment) was “re-growth” throughout.
